Laboratory results as given in PMC9351465, “Mechanism-based heparanase inhibitors reduce cancer metastasis in vivo” (Proceedings of the National Academy of Sciences of the …, 2022).
Values joined by “and” are separate entries in the source; they are usually repeats but may differ in a detail not shown here. Equal entries are not always repeated.

Legend:
[1] = target: T1, HPSE (Homo sapiens, UniProt Q9Y251); test: colorimetric fondaparinux cleavage assay; assay type: biochemical; conditions: 200 ng/mL HPSE, 100 µM fondaparinux, pH 5.0, 37°C, 18 h, n = 2; read-out: IC50, HPSE-mediated fondaparinux cleavage
T1 sequence (Q9Y251 158-543 limits assumed): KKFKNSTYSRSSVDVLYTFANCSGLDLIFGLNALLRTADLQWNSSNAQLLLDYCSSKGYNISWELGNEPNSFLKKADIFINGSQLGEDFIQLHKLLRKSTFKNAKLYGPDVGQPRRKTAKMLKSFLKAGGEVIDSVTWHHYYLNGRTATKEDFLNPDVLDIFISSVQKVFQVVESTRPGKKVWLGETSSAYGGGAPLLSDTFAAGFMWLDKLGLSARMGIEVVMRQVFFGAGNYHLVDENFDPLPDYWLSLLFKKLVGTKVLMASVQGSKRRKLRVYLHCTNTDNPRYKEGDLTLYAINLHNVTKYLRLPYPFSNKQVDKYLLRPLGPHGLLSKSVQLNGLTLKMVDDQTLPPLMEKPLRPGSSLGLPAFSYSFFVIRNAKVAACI
T1 sequence (Q9Y251 36-109 limits assumed): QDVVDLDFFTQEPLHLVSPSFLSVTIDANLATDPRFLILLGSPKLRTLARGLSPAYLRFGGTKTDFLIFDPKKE
Description: We next investigated the ability of our inhibitors to abrogate HPSE processing of its native oligosaccharide substrates, using a colorimetric assay that detects cleavage of the synthetic HS pentasaccharide fondaparinux ([49]). […]
Fondaparinux cleavage was performed essentially as previously described (9). Briefly, assays were carried out in 96 well plates (Nunc) pretreated with 4% BSA in TBS-T (20 mM Tris pH 7.4, […]
100 µL reactions were set up in 40 mM NaOAc pH 5.0 buffer, containing final concentrations of 200 ng/mL HPSE, 100 µM Fondaparinux (Arixtra) and specified concentrations of inhibitors.
Reactions were incubated at 37°C for 18 h, then quenched with 100 µL 0.1 M NaOH supplemented with 1.7 mM WST-1 tetrazolium salt, and incubated at 60°C for 1 h. Absorbance at 584 nm was read using an ELISA plate reader (BIO-TEK Instruments). All reactions were carried out in technical duplicate. Data were plotted and analyzed using Sigmaplot (Systat). […]

[2] = target: T2, endogenous cellular HPSE (U87 glioma cells) (Homo sapiens, UniProt Q9Y251); test: H35SPG digest by U87 glioma cell lysates, inhibitor before or after lysis; assay type: cell-based; conditions: inhibitor applied before or after lysis, 18 h digest
T2 construct: endogenous in cells; host or cells: U87 glioma cells
T2 sequence (Q9Y251 158-543 limits assumed): T1 sequence (Q9Y251 158-543 limits assumed)
T2 sequence (Q9Y251 36-109 limits assumed): T1 sequence (Q9Y251 36-109 limits assumed)
From the text: Finally, we assessed our inhibitors against HPSE-mediated degradation of bona fide HSPGs in an ECM environment. Cultured bovine corneal endothelial cells secrete a subendothelial basement membrane material rich in proteoglycans, which can be radiolabeled by growth in the presence of ^35SO4^2− ([50]). Solubilized H^35S chains released from H^35SPGs by HPSE digestion can be resolved chromatographically, with HPSE inhibition leading to a corresponding loss of signal. […] We also tested inhibition of endogenous cellular HPSE using this assay format.
Figure S7 Radiolabelled H35SPG basement membrane digests by HPSE expressing U87 cell […]
(1 picture or pasted object on this page, not shown here)
For HS-degradation assays, ECM coated dishes were incubated with 200 ng recombinant HPSE in 1 mL reaction mixture (10 mM buffer Phosphate-Citrate pH 6.0, 50 mM NaCl, 1 mM DTT, 1 mM CaCl2) containing HPSE inhibitors or DMSO control. […] The Sepharose 6B column was eluted with PBS, and 35S radioactivity of 0.2 mL fractions quantitated using a liquid scintillation analyzer (Packard BioScience) (11). […]
(§1) Cells in the upper chamber were separated by Matrigel from a lower chamber containing 600 µL DMEM, supplemented with 10% FBS. […] 10 randomly selected microscopic fields were recorded, and cell invasion calculated using ImageJ, by quantitating the percentage of the field stained by crystal violet. […]

[3] = system: U87 glioblastoma cells; test: Matrigel invasion assay; assay type: cell-based, human; conditions: 20 µM inhibitor, 4 h
Description: Preliminary in cellulo evaluations of our inhibitors’ effects on cancer aggression were conducted using a Matrigel invasion assay, which measures the ability of cells to migrate through transwell inserts coated with the ECM material Matrigel. Matrigel invasion by cells requires a broad complement of proteases and glycosidases, thereby mimicking some aspects of metastasis in vivo ([51]).
For HS-degradation assays, ECM coated dishes were incubated with 200 ng recombinant HPSE in 1 mL reaction mixture (10 mM buffer Phosphate-Citrate pH 6.0, 50 mM NaCl, 1 mM DTT, 1 mM CaCl2) containing HPSE inhibitors or DMSO control. Plates were incubated at 37°C for 5 h, then assay medium collected and applied to a 0.9×30 cm Sepharose 6B size exclusion column. The Sepharose 6B column was eluted with PBS, and 35S radioactivity of 0.2 mL fractions quantitated using a liquid scintillation analyzer (Packard BioScience) (11). […]
as §1

CC(=O)N[C@H]1[C@@H](O[C@H]2[C@H](O)[C@@H](O)[C@@H]3O[C@@H]3[C@@H]2C(=O)O)O[C@H](CO)[C@@H](O)[C@@H]1O [compound 2]
IC50 [1]: 460 nM and ~460 nM
inhibition of intracellular HPSE pool (cell penetration) [2]: can also penetrate cells to inhibit the intracellular HPSE pool
Matrigel invasion (% field stained) [3]: significantly reduced Matrigel invasion
